Drawing on patent US12202835B2, “Substituted aromatic ring-linked dioxinoquinazolines and dioxinoquinolines as kinase inhibitors” (BEIJING SCITECH-MQ PHARMACEUTICALS LIMITED, priority 2018, dated 2025), this text covers IC50 for eleven compounds.

Common to all, as to assay type: cell-based
The subject of one assay is MHCC97H cells. The experiment in a line: Assay for inhibiting the proliferation of MHCC97H cells (CCK-8). Conditions: Homo sapiens. The method, boiled down:
(§1)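 Cells seeded in 96-well plates overnight, then exposed 72 h to 9 three-fold dilutions of compound (0.25% DMSO final). Viability by CCK-8 (1-2 h at 37° C., OD 450 nm), survival normalized to untreated and cell-free blanks; IC50 by curve fitting.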

The test system of assay [1] is Ba/F3 LMNA-NTRK1-G595R cells. The experiment in a line: Assay for inhibiting the proliferation of Ba/F3 LMNA-NTRK1-G595R cells (CCK-8). Particulars: Mus musculus, BaF3. The method, boiled down:
as §1

In a further assay the test system is EBC1 cells. The assay is described as follows: Assay for inhibiting the proliferation of EBC1 cells (CCK-8). Conditions: Homo sapiens, EBC-1. The procedure, abridged: as §1

For `COc1cc2nccc(Oc3cc(Cl)c(NC(=O)c4cn(C)c(=O)n(-c5ccc(F)cc5)c4=O)cc3F)c2c2c1OCCO2` [Example 116, N-(2-chloro-5-fluoro-4-((5-methoxy-2,3-dihydro-[1,4]dioxino[2,3-f]quinolin-10-yl)oxy)phenyl)-3-(4-fluorophenyl)-1-methyl-2,4-dioxo-1,2,3,4-tetrahydropyrimidine-5-carboxamide], the IC50 (usually the point on the concentration scale where inhibition reaches its midpoint) in the assay on MHCC97H cells is 50 to 200 nM; in assay [1], at most 50 nM; with EBC1 cells it was at most 50 nM.
As to `Cn1cc(C(=O)Nc2ccc(Oc3ccnc4cc(OCCCN5CCOCC5)c5c(c34)OCCO5)c(F)c2)c(=O)n(-c2ccc(F)cc2)c1=O` [Example 15, N-(3-fluoro-4-((5-(3-morpholinopropoxy)-2,3-dihydro-[1,4]dioxino[2,3-f]quinolin-10-yl)oxy)phenyl)-3-(4-fluorophenyl)-1-methyl-2,4-dioxo-1,2,3,4-tetrahydropyrimidine-5-carboxamide], the IC50 was at most 50 nM in the assay on MHCC97H cells, 50 to 200 nM in assay [1] and at most 50 nM in the assay with EBC1 cells.
`CCn1cc(C(=O)Nc2cc(F)c(Oc3ccnc4cc(OCCOC)c5c(c34)OCCO5)cc2C)c(=O)n(-c2ccc(F)cc2)c1=O` [Example 180, N-(5-fluoro-4-((5-(2-methoxyethoxy)-2,3-dihydro-[1,4]dioxino[2,3-f]quinolin-10-yl)oxy)-2-methylphenyl)-3-(4-fluorophenyl)-1-ethyl-2,4-dioxo-1,2,3,4-tetrahydropyrimidine-5-carboxamide]: the IC50 (in the assay on MHCC97H cells; in assay [1]) was at most 50 nM throughout.
As for `COc1cc2nccc(Oc3cc(C)c(NC(=O)c4cn(C)c(=O)n(-c5ccc(F)cc5)c4=O)cc3F)c2c2c1OCCO2` [Example 177, N-(5-fluoro-4-((5-methoxy-2,3-dihydro-[1,4]dioxino[2,3-f]quinolin-10-yl)oxy)-2-methylphenyl)-3-(4-fluorophenyl)-1-methyl-2,4-dioxo-1,2,3,4-tetrahydropyrimidine-5-carboxamide], the figures for the IC50 (in the assay with MHCC97H cells; in assay [1]) were 50 to 200 nM and at most 50 nM, respectively.
The matching figures for `COCCOc1cc2nccc(Oc3cc(C)c(NC(=O)c4cn(C)c(=O)n(-c5ccc(F)cc5)c4=O)cc3F)c2c2c1OCCO2` [Example 179, N-(5-fluoro-4-((5-(2-methoxyethoxy)-2,3-dihydro-[1,4]dioxino[2,3-f]quinolin-10-yl)oxy)-2-methylphenyl)-3-(4-fluorophenyl)-1-methyl-2,4-dioxo-1,2,3,4-tetrahydropyrimidine-5-carboxamide]: at most 50 nM and at most 50 nM.
In assay [1], `Cn1cc(C(=O)Nc2ccc(Oc3ccnc4cc(OCC(C)(C)O)c5c(c34)OCCO5)cc2)c(=O)n(-c2ccc(F)cc2)c1=O` [Example 149, N-(4-((5-(2-hydroxy-2-methylpropoxy)-2,3-dihydro-[1,4]dioxino[2,3-f]quinolin-10-yl)oxy)phenyl)-3-(4-fluorophenyl)-1-methyl-2,4-dioxo-1,2,3,4-tetrahydropyrimidine-5-carboxamide] yielded an IC50 of over 1000 nM.
Regarding `CCn1cc(C(=O)Nc2ccc(Oc3ccnc4cc(OCCCN5CCCCC5)c5c(c34)OCCO5)c(F)c2)c(=O)n(-c2ccc(F)cc2)c1=O` [Example 41, N-(3-fluoro-4-((5-(3-(piperidin-1-yl)propoxy)-2,3-dihydro-[1,4]dioxino[2,3-f]quinolin-10-yl)oxy)phenyl)-3-(4-fluorophenyl)-1-ethyl-2,4-dioxo-1,2,3,4-tetrahydropyrimidine-5-carboxamide], the IC50 with MHCC97H cells was 50 to 200 nM; in assay [1], 50 to 200 nM; in the assay with EBC1 cells it was at most 50 nM.
The compound `CCn1cc(C(=O)Nc2ccc(Oc3ccnc4cc(OC)c5c(c34)OCCO5)c(F)c2)c(=O)n(-c2ccc(F)cc2)c1=O` [Example 37, N-(3-fluoro-4-((5-methoxy-2,3-dihydro-[1,4]dioxino[2,3-f]quinolin-10-yl)oxy)phenyl)-3-(4-fluorophenyl)-1-ethyl-2,4-dioxo-1,2,3,4-tetrahydropyrimidine-5-carboxamide] yielded an IC50 in assay [1] of 50 to 200 nM.
`Cn1cc(C(=O)Nc2ccc(Oc3ccnc4cc(OCCCN5CCCCC5)c5c(c34)OCCO5)c(F)c2)c(=O)n(-c2ccc(F)cc2)c1=O` [Example 39, N-(3-fluoro-4-((5-(3-(piperidin-1-yl)propoxy)-2,3-dihydro-[1,4]dioxino[2,3-f]quinolin-10-yl)oxy)phenyl)-3-(4-fluorophenyl)-1-methyl-2,4-dioxo-1,2,3,4-tetrahydropyrimidine-5-carboxamide]: the IC50 in the assay with MHCC97H cells was 50 to 200 nM; in assay [1], 50 to 200 nM; in the assay on EBC1 cells, at most 50 nM.
Regarding `COCCOc1cc2nccc(Oc3ccc(NC(=O)c4cn(C)c(=O)n(-c5ccc(F)cc5)c4=O)cc3F)c2c2c1OCCO2` [Example 42, N-(3-fluoro-4-((5-(2-methoxyethoxy)-2,3-dihydro-[1,4]dioxino[2,3-f]quinolin-10-yl)oxy)phenyl)-3-(4-fluorophenyl)-1-methyl-2,4-dioxo-1,2,3,4-tetrahydropyrimidine-5-carboxamide], the half-inhibitory concentration (IC50) with MHCC97H cells was at most 50 nM; in assay [1] it was 50 to 200 nM; in the assay with EBC1 cells it was at most 50 nM.
Take `COc1cc2nccc(Oc3ccc(NC(=O)c4cn(C)c(=O)n(-c5ccc(F)cc5)c4=O)c(F)c3)c2c2c1OCCO2` [Example 153, N-(2-fluoro-4-((5-methoxy-2,3-dihydro-[1,4]dioxino[2,3-f]quinolin-10-yl)oxy)phenyl)-3-(4-fluorophenyl)-1-methyl-2,4-dioxo-1,2,3,4-tetrahydropyrimidine-5-carboxamide]: the IC50 in assay [1] is at most 50 nM.
